From US8916686B2, “TDF-related compounds and analogs thereof” (Thrasos Innovation, Inc., priority 2004, dated 2014)

Legend:
[1] = system: renal toxic effects of cisplatin in the rat; assay: Cisplatin renal toxicity in male Sprague-Dawley rat; format: in vivo
Description: Compound (SEQ ID #45) was tested in male Sprague-Dawley rats (250 gm to 300 gm) to establish the dose range and the extent to which the compound is able to prophylactically and therapeutically ameliorate the renal toxic effects of cisplatin. The cisplatin dosing level was the chemotherapeutic level used in humans, 40 ug/kg bw. The end points were the level of creatinine in serum and kidney histology. The positive control used was 250 ug/kg bw of the mature form of recombinant human BMP-7 (rhmBMP-7).
A stock solution (70 mg/ml) of the test article (SEQ ID #45) was made by dissolving it in 20 mM Acetate (ph 4.2). The stock solution was further diluted into phosphate buffered saline (PBS, pH 7.2) plus 5% Mannitol to compound concentrations of 14 mg/ml (28 mg/kg dose), 1.4 mg/ml (2.8 mg/kg dose) and 0.14 mg/ml (0.28 mg/kg dose).
Cisplatin was administered via i.p. injection (40 ug/kg bw) at time zero. Administration of therapeutic dosing of the compound, the rhmBMP-7 positive control and vehicle negative control were by slow bolus i.v. injection through the tail vein at five time points: 2 hours before the administration of cisplatin, then at 24 hours, 48 hours, 72 hours and 96 hours post cisplatin administration. Blood samples were collected through the tail vein at time points of 0, 24, 48, 72 and 96 hours. At seven day sample was collected by exsanguination at sacrifice. Serum was prepared from the blood samples and analyzed for creatinine concentration. The serum concentration of creatinine, a byproduct of muscle activity that is released into the blood stream and cleared through the kidneys, is a marker of kidney function that tends to rise when kidney function becomes severely compromised (FIG. 18).
Upon sacrifice at seven days, the kidneys were harvested, fixed in formalin and imbedded in paraffin. They were then sagitally sectioned and stained in H&E stain. Kidney sections were also stained with anti-bodies against proliferating cell nuclear antigen (PCNA) (to identify sites of cell regeneration), macrophages, ICAM-1, and smooth muscle. Also collected at sacrifice were tissues at and around the injection site (FIG. 19A-FIG. 19B).

[2] = system: CD1 mouse model of streptozotocin (STZ)-induced diabetic nephropathy; assay: Streptozotocin (STZ)-induced diabetic nephropathy; format: in vivo; settings: ip 5 mg/kg/24 hr; after one month treatment
Description: Reversal of interstitial fibrosis by Thrasos compound SEQ ID NO 45 in a CD1 mouse model of streptozotocin (STZ)-induced diabetic nephropathy. FIG. 7A. schematic of the experimental protocol, FIG. 7B: Kidney section of vehicle-treated animal, FIG. 7C: Kidney section of animal received ip administration of Thrasos compound (5 mg/kg/24 hr). Sac: After one month treatment.

[3] = system: HK-2 (Human Kidney-2) cells; assay: HK-2 cell culture, TNF-alpha induced cytokine production (IL-6 ELISA); format: cell-based
Description: The immortalized PTEC-derived HK-2 (Human Kidney-2) cells (ATCC number CRL-2190) were grown in serum-free keratinocyte medium (GIBCO number 17005-042) supplemented with epidermal growth factor (EGF: 5 ng/mL) and bovine pituitary extract (40 ug/mL) for 48 hours as described previously (Ryan et al (1994) Kidney International 45:48-57). Cells were transferred to 24-well plates at a density of 3×10^5 cells per well. After 24 hours, cells were incubated with fresh medium containing TNF-alpha (5 ng/mL) for 20 hours. Controls received medium alone. Then cells were washed twice with fresh culture medium and further incubated with culture medium alone (medium control, and TNF control wells) or TDF-1 at three different concentrations (40, 200 or 1000 ng/mL) or TDFRP compounds at three different concentrations (4, 20 or 100 uM) for sixty hours. During incubation, cells were kept in a 5% CO2 humid atmosphere at 37° C. At the end of the incubation, the media were removed and stored frozen until assayed. The concentrations of IL-6, IL-8 and sICAM-1 in culture supernatants were measured by specific ELISA (FIG. 10). […]
An 8 point standard curve is prepared using 2-fold serial dilutions in reagent diluent. […] The optical density of each well is determined immediately using a microplate reader (Dynex Revelation 4.22) set to 450 nm and a wavelength correction at 550 nm […]

CYFDDSSNVLCKKYRS [SEQ ID NO 45] was tested, and the “cisplatin-induced inflammation of the kidney cortex” value ([1]; 2.8 mg/kg bw) was “significantly reduced”, the ICAM-1 release ([1]; 2.8 mg/kg bw, kidney sections) was “reduced” and the “degree of cellular regeneration (PCNA)” value ([1]; 2.8 mg/kg bw, kidney sections) was “increased”. The macrophage infiltration ([1]; 2.8 mg/kg bw, kidney sections) was “reduced”, the smooth muscle loss ([1]; 2.8 mg/kg bw, kidney sections) was “reduced” and the “cisplatin-induced level of creatinine in serum” value ([1]; 0.28, 2.8 and 28 mg/kg bw i.v.) was “reduces the cisplatin-induced level of creatinine in serum”. The “reduction of serum creatinine rise following cisplatin, versus positive control” value ([1]; highest dose (28 mg/kg), positive control rhmBMP-7) was “more efficacious than the positive control”, the “nephrotoxic effects of cisplatin exposure” value ([1]; rat, in vivo) was “can reduce or ameliorate the nephrotoxic effects of cisplatin exposure” and the renal interstitial fibrosis [2] was “effectively reversed renal interstitial fibrosis”. For the same sequence, the “TNF-alpha induced inflammatory response (increase in IL-6) in proximal tubule cells” value [3] was “can alleviate this inflammatory response”.
